≈ marks a conversion by molar mass, not a printed value. Where a name gives a salt, the structure may show the parent alone. Read-outs that look alike come from different tables or passages of the source.
Tests used:
Assay type in all cases: cell-based
Proteus morgani IID 602 = test: Antibacterial activity (MIC), Proteus morgani IID 602; details: read-out: MIC (minimum effective inhibitory concentration)
Excerpt: (§1) Antibacterial activities (minimum effective inhibitory concentrations) of the compounds of formula I are shown in the following table in comparison with those of cefatazidime having the structure [drawing 5] and cefmenoxime having the structure [drawing 6]

Serr. marcescens IID 620 = test: Antibacterial activity (MIC), Serr. marcescens IID 620; details: Serratia marcescens
Excerpt: as §1

Staph. aureus ATCC 6538P = test: Antibacterial activity (MIC), Staph. aureus ATCC 6538P; details: Staphylococcus aureus, ATCC6538P, read-out: MIC (minimum effective inhibitory concentration)
Excerpt: as §1

Ent. cloacae V-8 = test: Antibacterial activity (MIC), Ent. cloacae V-8; details: Enterobacter cloacae, V8, read-out: MIC (minimum effective inhibitory concentration)
Excerpt: as §1

Staph. aureus Terashima = test: Antibacterial activity (MIC), Staph. aureus Terashima; details: Staphylococcus aureus, read-out: MIC (minimum effective inhibitory concentration)
Excerpt: as §1

E. coli Ebara = test: Antibacterial activity (MIC), E. coli Ebara; details: Escherichia coli, read-out: MIC (minimum effective inhibitory concentration)
Excerpt: as §1

[1] = system: Kleb. pneumoniae ATCC 10031; test: Antibacterial activity (MIC), Kleb. pneumoniae ATCC 10031; details: Klebsiella pneumoniae, ATCC10031, read-out: MIC (minimum effective inhibitory concentration)
Excerpt: as §1

Staph. aureus Smith = test: Antibacterial activity (MIC), Staph. aureus Smith; details: Staphylococcus aureus, read-out: MIC (minimum effective inhibitory concentration)
Excerpt: as §1

Ps. aeruginosa IID 5142 = test: Antibacterial activity (MIC), Ps. aeruginosa IID 5142; details: Pseudomonas aeruginosa, IID5142, read-out: MIC (minimum effective inhibitory concentration)
Excerpt: as §1

[2] = system: Ent. aerogenes ATCC 13048 (MS-1); test: Antibacterial activity (MIC), Ent. aerogenes ATCC 13048 (MS-1); details: Klebsiella aerogenes, ATCC13048, read-out: MIC (minimum effective inhibitory concentration)
Excerpt: as §1

[3] = system: Ps. aeruginosa NCTC 10490; test: Antibacterial activity (MIC), Ps. aeruginosa NCTC 10490; details: Pseudomonas aeruginosa, NCTC10490, read-out: MIC (minimum effective inhibitory concentration)
Excerpt: as §1

[4] = IID620, Serr. marcescens IID 620, read-out: MIC (minimum effective inhibitory concentration)

SMILES | MIC (Proteus morgani IID 602; Proteus morgani IID 602) [µg/mL] | MIC (Serr. marcescens IID 620; [4]) [µg/mL] | MIC (Staph. aureus ATCC 6538P) [µg/mL] | MIC (Ent. cloacae V-8) [µg/mL] | MIC (Staph. aureus Terashima) [µg/mL] | MIC (E. coli Ebara; E. coli Ebara) [µg/mL] | MIC [1] [µg/mL] | MIC (Staph. aureus Smith) [µg/mL] | MIC (Ps. aeruginosa IID 5142) [µg/mL] | MIC [2] [µg/mL] | MIC [3] [µg/mL] | MIC (Proteus morgani IID 602) [µg/mL] | MIC (Serr. marcescens IID 620; IID620, read-out: MIC (minimum effective inhibitory concentration)) [µg/mL] | MIC (E. coli Ebara) [µg/mL]
Nc1nc(CO/N=C(\C(=O)NC2C(=O)N3C(C(=O)[O-])=C(C[n+]4cccc(O)c4)CS[C@H]23)c2csc(N)n2)cs1 (stereo partly drawn) [Example 16, (Z)-7-{α-(2-amino-4-thiazolyl)-α-[(2-amino-4-thiazolyl)methoxyimino]acetamido}-3-(3-hydroxy-1-pyridiniomethyl]-3-cephem-4-carboxylate] | 0.78 (≈ 1.33 µM) | 0.39 (≈ 0.663 µM) | 3.13 (≈ 5.32 µM) | 6.25 (≈ 10.6 µM) | 6.25 (≈ 10.6 µM) | 1.56 (≈ 2.65 µM) | ≤ 0.2 | 6.25 (≈ 10.6 µM) | 25 (≈ 42.5 µM) | 3.13 (≈ 5.32 µM) | 1.56 (≈ 2.65 µM) | – | – | –
Nc1nc(CO/N=C(\C(=O)NC2C(=O)N3C(C(=O)[O-])=C(C[n+]4ccc(C(=O)O)cc4)CSC23)c2csc(N)n2)cs1 (stereo not drawn) [Example 14, (Z)-7-{α-(2-amino-4-thiazolyl)-α-[(2-amino-4-thiazolyl)methoxyimino]acetamido}-3-(4-carboxylate-1-pyridiniomethyl)-3-cephem-4-carboxylatemono-sodium salt] | 0.78 | ≤ 0.2 | 3.13 | 3.13 | 6.25 | 3.13 | ≤ 0.2 | 3.13 | 12.5 | 1.56 | 0.39 | – | – | –
Nc1nc(CO/N=C(\C(=O)NC2C(=O)N3C(C(=O)[O-])=C(C[n+]4ccc(CO)cc4)CS[C@H]23)c2csc(N)n2)cs1 (stereo partly drawn) [Example 15, (Z)-7-{α-(2-amino-4-thiazolyl)-α-[(2-amino-4-thiazolyl)methoxyimino]acetamido}-3-(4-hydroxymethyl-1-pyridiniomethyl)-3-cephem-4-carboxylate] | 1.56 (≈ 2.59 µM) | ≤ 0.2 | 1.56 (≈ 2.59 µM) | 3.13 (≈ 5.19 µM) | 1.56 (≈ 2.59 µM) | ≤ 0.2 | ≤ 0.2 | 1.56 (≈ 2.59 µM) | 6.25 (≈ 10.4 µM) | 1.56 (≈ 2.59 µM) | ≤ 0.2 | – | – | –
Nc1nc(CO/N=C(\C(=O)NC2C(=O)N3C(C(=O)[O-])=C(C[n+]4cccc(C(=O)O)c4)CSC23)c2csc(N)n2)cs1 (stereo not drawn) [Example 13, (Z)-7-{α-(2-amino-4-thiazolyl)-α-[(2-amino-4-thiazolyl)methoxyimino]acetamido}-3-(3-carboxylate-1-pyridiniomethyl)-3-cephem-4-carboxylatemono-sodium salt] | 1.56 | ≤ 0.2 | 3.13 | 3.13 | 6.25 | 3.13 | ≤ 0.2 | 3.13 | 25 | 3.13 | 1.56 | – | – | –
CC(C)(O/N=C(\C(=O)N[C@@H]1C(=O)N2C(C(=O)[O-])=C(C[n+]3ccccc3)CS[C@H]12)c1csc(N)n1)C(=O)O [CD, Ceftazidime, reference compound] | – | – | 6.25 (≈ 11.4 µM) | 1.56 (≈ 2.85 µM) | 12.5 (≈ 22.9 µM) | – | ≤ 0.2 | 6.25 (≈ 11.4 µM) | 1.56 (≈ 2.85 µM) | 0.39 (≈ 0.714 µM) | 0.78 (≈ 1.43 µM) | ≤ 0.2 | ≤ 0.2 | ≤ 0.2
Nc1nc(CO/N=C(\C(=O)NC2C(=O)N3C(C(=O)[O-])=C(C[n+]4cccc(NC=O)c4)CS[C@H]23)c2csc(N)n2)cs1 (stereo partly drawn) [Example 18, (Z)-7-{α-(2-amino-4-thiazolyl)-α-[(2-amino-4-thiazolyl)methoxyimino]acetamido}-3-(3-formamido-1-pyridiniomethyl)-3-cephem-4-carboxylate] | 0.78 (≈ 1.27 µM) | 0.39 (≈ 0.633 µM) | 0.78 (≈ 1.27 µM) | 3.13 (≈ 5.08 µM) | 1.56 (≈ 2.53 µM) | 0.78 (≈ 1.27 µM) | ≤ 0.2 | 0.78 (≈ 1.27 µM) | 6.25 (≈ 10.2 µM) | 1.56 (≈ 2.53 µM) | 0.39 (≈ 0.633 µM) | – | – | –
Nc1nc(CO/N=C(\C(=O)NC2C(=O)N3C(C(=O)[O-])=C(C[n+]4ccccn4)CSC23)c2csc(N)n2)cs1 (stereo not drawn) [Example 7, (Z)-7-{α-(2-amino-4-thiazolyl)-α-[(2-amino-4-thiazolyl)methoxyimino]acetamido}-3-(1-pyridadiniomethyl)-3-cephem-4-carboxylate] | 1.56 (≈ 2.72 µM) | 0.39 (≈ 0.68 µM) | 1.56 (≈ 2.72 µM) | 6.25 (≈ 10.9 µM) | 1.56 (≈ 2.72 µM) | 0.78 (≈ 1.36 µM) | ≤ 0.2 | 1.56 (≈ 2.72 µM) | 12.5 (≈ 21.8 µM) | 3.13 (≈ 5.46 µM) | 0.78 (≈ 1.36 µM) | – | – | –
Nc1nc(CO/N=C(\C(=O)NC2C(=O)N3C(C(=O)[O-])=C(C[n+]4cccc(C(=O)NCC(=O)O)c4)CSC23)c2csc(N)n2)cs1 (stereo not drawn) [Example 20, (Z)-7-{α-(2-amino-4-thiazolyl)-α-[(2-amino-4-thiazolyl)methoxyimino]acetamido}-3-{3-[N-(carboxylatemethyl)carbamoyl]-1-pyridiniomethyl}-3-cephem-4-carboxylate mono-sodium salt] | 1.56 | ≤ 0.2 | 6.25 | 12.5 | 12.5 | 6.25 | 0.39 | 6.25 | 25 | 3.13 | 1.56 | – | – | –
Nc1cc[n+](CC2=C(C(=O)[O-])N3C(=O)C(NC(=O)/C(=N\OCc4csc(N)n4)c4csc(N)n4)[C@H]3SC2)cc1 (stereo partly drawn) [Example 21, 7-{α-(2-amino-4-thiazolyl)-α-[(2-amino-4-thiazolyl)methoxyimino]acetamido}-3-(4-amino-1-pyridiniomethyl)-3-cephem-4-carboxylate] | 0.39 (≈ 0.664 µM) | ≤ 0.2 | 0.39 (≈ 0.664 µM) | 1.56 (≈ 2.65 µM) | 0.39 (≈ 0.664 µM) | ≤ 0.2 | ≤ 0.2 | 0.39 (≈ 0.664 µM) | 6.25 (≈ 10.6 µM) | 0.78 (≈ 1.33 µM) | 0.39 (≈ 0.664 µM) | – | – | –
Cn1nc(O)c(=O)nc1SCC1=C(C(=O)O)N2C(=O)C(NC(=O)/C(=N\OCc3csc(N)n3)c3csc(N)n3)[C@H]2SC1 (stereo partly drawn) [Example 5, (Z)-7-{α-(2-amino-4-thiazolyl)-α-[(2-amino-4-thiazolyl)methoxyimino]acetamido}-3-{[(2,5-dihydro-6-hydroxy-2-methyl-5-oxo-as-triazine-3-yl)thio]methyl}-3-cephem-4-carboxylic acid] | 0.39 (≈ 0.597 µM) | 0.78 (≈ 1.19 µM) | 3.13 (≈ 4.8 µM) | 1.56 (≈ 2.39 µM) | 12.5 (≈ 19.2 µM) | ≤ 0.2 | ≤ 0.2 | 3.13 (≈ 4.8 µM) | 12.5 (≈ 19.2 µM) | 1.56 (≈ 2.39 µM) | 1.56 (≈ 2.39 µM) | – | – | –

Reference: patent publication US4608373A, “Cephem compounds” (Yamanouchi Pharmaceutical Co., Ltd., priority 1982, dated 1986)
